According to patent publication US20240270821A1, “GIP/GLP1/GCG TRI-RECEPTOR AGONISTS AND USES THEREOF” (priority 2023, published 2024):
Where two headings read alike, the source gives them in different places. Starred links: 1 amine or outer side, 2 acyl side, 3 side chain; linkers in the order of their positions; H or OH if unused. Non-standard residues stand in square brackets, D forms with d. Groups on a side chain read outwards from the residue. No end group written: not given here. *: point of attachment. C20 diacid = O=C(O)CCCCCCCCCCCCCCCCCCC(=O)*; C18 diacid = O=C(O)CCCCCCCCCCCCCCCCC(=O)*; γGlu = O=C(O)[C@H](CCC(=O)[*:2])N[*:1]; αMe4Pal = C[C@](N)(Cc1ccncc1)C(=O)O; 4Pal = N[C@@H](Cc1ccncc1)C(=O)O; αMeL = CC(C)C[C@](C)(N)C(=O)O; Orn = NCCC[C@H](N)C(=O)O; AEEA = NCCOCCOCC(=O)O; Aib = CC(C)(N)C(=O)O

What was measured:
Type in all cases: cell-based
[1] = biological target: T1, hGIPR (Homo sapiens, UniProt P48546); test: Functional cAMP activity in the presence of 1% HSA
T1 sequence (P48546 22-466): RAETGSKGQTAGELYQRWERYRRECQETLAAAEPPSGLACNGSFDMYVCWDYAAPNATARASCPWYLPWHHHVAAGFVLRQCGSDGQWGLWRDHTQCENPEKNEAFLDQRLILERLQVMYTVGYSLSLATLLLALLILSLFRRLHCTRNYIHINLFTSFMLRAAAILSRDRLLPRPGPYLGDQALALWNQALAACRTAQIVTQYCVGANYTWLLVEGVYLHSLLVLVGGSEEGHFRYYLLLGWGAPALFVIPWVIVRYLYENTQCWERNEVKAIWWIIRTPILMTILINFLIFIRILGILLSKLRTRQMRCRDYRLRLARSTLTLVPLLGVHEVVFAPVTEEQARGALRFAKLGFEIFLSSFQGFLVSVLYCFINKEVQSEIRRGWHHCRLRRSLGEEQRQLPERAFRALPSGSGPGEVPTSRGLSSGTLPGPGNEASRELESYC

[2] = biological target: T2, hGLP-1R (Homo sapiens, UniProt P43220); test: Functional cAMP activity in the presence of 1% HSA
T2 sequence (P43220 24-463): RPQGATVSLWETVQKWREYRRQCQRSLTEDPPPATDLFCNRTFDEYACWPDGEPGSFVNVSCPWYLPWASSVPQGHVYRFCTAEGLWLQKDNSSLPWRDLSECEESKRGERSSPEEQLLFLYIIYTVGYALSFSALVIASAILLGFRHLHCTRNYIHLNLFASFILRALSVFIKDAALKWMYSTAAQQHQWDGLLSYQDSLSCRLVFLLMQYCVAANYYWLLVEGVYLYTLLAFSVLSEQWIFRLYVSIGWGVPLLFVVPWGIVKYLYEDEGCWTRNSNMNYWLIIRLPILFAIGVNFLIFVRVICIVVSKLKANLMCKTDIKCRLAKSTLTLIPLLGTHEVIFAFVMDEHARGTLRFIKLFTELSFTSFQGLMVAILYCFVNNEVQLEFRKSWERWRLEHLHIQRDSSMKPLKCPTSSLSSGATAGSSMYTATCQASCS

[3] = biological target: human GcgR (Homo sapiens, UniProt P47871); test: Functional cAMP activity in the presence of 1% HSA
human GcgR, sequence (P47871 26-477): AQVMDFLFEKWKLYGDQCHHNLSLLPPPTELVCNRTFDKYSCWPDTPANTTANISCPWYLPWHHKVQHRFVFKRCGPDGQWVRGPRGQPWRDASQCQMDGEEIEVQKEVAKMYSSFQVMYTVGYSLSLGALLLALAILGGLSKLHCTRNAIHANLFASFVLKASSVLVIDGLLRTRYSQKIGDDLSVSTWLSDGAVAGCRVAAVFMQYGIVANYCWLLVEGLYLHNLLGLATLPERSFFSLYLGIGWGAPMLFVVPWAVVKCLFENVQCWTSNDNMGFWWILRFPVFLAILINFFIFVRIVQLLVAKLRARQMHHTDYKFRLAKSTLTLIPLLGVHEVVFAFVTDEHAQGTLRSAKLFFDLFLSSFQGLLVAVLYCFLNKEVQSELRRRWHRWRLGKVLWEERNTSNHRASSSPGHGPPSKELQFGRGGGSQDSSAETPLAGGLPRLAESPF

[4] = biological target: T1, hGIPR; test: Functional cAMP activation in the presence of 0.1% casein (no HSA);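 on Relative cAMP EC50, hGIPR: intracellular cAMP rise after 30 min at 37 °C read by HTRF against a standard curve, scaled between buffer alone (0%) and top control ligand concentration (100%), four-parameter fit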;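 on Relative cAMP EC50, hGLP-1R: intracellular cAMP rise after 30 min at 37 °C read by HTRF, normalized between buffer only (0%) and maximal control ligand (100%), four-parameter variable-slope fit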;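 on Relative cAMP EC50, hGcgR: intracellular cAMP rise after 30 min at 37 °C, read by HTRF against a cAMP standard curve, scaled from buffer only (0%) to maximal control ligand response (100%)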
[5] = biological target: T2, hGLP-1R; test: as above
[6] = biological target: hGcgR (Homo sapiens, UniProt P47871); test: as above;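 further: intracellular cAMP rise after 30 min at 37 °C, read by HTRF against a cAMP standard curve, scaled from buffer only (0%) to maximal control ligand response (100%)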
hGcgR, sequence (P47871 26-477): as above

[7] = biological target: human GLP1-R (Homo sapiens, UniProt P43220); test: GLP1-R internalization assay in HEK293 cells; conditions: for Internalization % TOP: normalized to maximum concentration of GLP-1 (100%)
human GLP1-R, sequence (P43220 24-463): as the sequence (P43220 24-463) above

[8] = read-out: cAMP Rel EC50, hGLP-1R
[9] = in the presence of 0.1% casein (no HSA), geometric mean, read-out: Relative cAMP EC50, hGIPR
[10] = in the presence of 0.1% casein (no HSA), geometric mean, read-out: Relative cAMP EC50, hGLP-1R
[11] = in the presence of 0.1% casein (no HSA), geometric mean, read-out: Relative cAMP EC50, hGcgR
[12] = HEK293 cells expressing SNAP-GLP-1R, read-out: GLP1R Internalization EC50

Substance | EC50 ([1]; read-out: cAMP Rel EC50, hGIPR) [nM] | EC50 [2, 8] [nM] | EC50 ([3]; read-out: cAMP Rel EC50, hGcgR) [nM] | EC50 [4, 9] [nM] | EC50 [5, 10] [nM] | EC50 [6, 11] [nM] | EC50 [7, 12] [nM] | Internalization % TOP [7] [%] | EC50 [1] [nM] | EC50 [2] [nM] | EC50 [3] [nM] | EC50 [4] [nM] | EC50 [5] [nM] | EC50 [6] [nM] | EC50 [7] [nM]
H-Y[Aib]QGTFTSDFS[Orn][αMeL]LDKK([AEEA-AEEA-γGlu-C18 diacid])AQ[Aib]AFIEYLLE[Aib]GHSSGAPPPSGS-NH2 [Example 181] | 12.7 | 365 | 772 | 0.133 | 4.39 | 6.25 | 116 | 47.5 |  |  |  |  |  |  | 
H-Y[Aib]QGTFTSDFSK[αMeL]LDKK([AEEA-γGlu-C18 diacid])AQ[Aib]AFIEYLLE[Aib]GPSSGAPPPSEG-NH2 [Example 57] | 3.78 | 42.7 | 113 | 0.098 | 3.06 | 4.37 | 76.6 | 73.1 |  |  |  |  |  |  | 
H-Y[Aib]QGTFTSD[4Pal]SR[αMeL]LDKK([AEEA-γGlu-C18 diacid])AQ[Aib]AFIEYLLAGGPSSGAPPPSGE-NH2 [Example 113] | 32.3 | 467 | 2090 | 0.24 | 3.93 | 12 | 39.5 | 64.6 |  |  |  |  |  |  | 
H-Y[Aib]QGTFTSDFS[Orn][αMeL]LDKK([AEEA-γGlu-C18 diacid])AQ[Aib]AFIEYLLEGGPSSGAPPPGGT-NH2 [Example 158] | 24.7 | 184 | 325 | 0.245 | 2.49 | 3.72 | 104 | 52.4 |  |  |  |  |  |  | 
H-Y[Aib]QGTFTSDFS[Orn][αMeL]LDKK([AEEA-γGlu-C18 diacid])AQ[Aib]AFIEYLLAGGPSSGAPPPSGE-NH2 [Example 86] | 19.6 | 421 | 1130 | 0.145 | 2.43 | 7.23 | 57.8 | 52.5 |  |  |  |  |  |  | 
H-Y[Aib]QGTFTSDFSK[αMeL]LDKK([AEEA-γGlu-C20 diacid])AQQAFIEYLLA[Aib]GPSSGEPPPSEG-NH2 [Example 19] |  |  |  |  |  |  |  | 72.6 | 66.2 | 1310 | 1010 | 0.228 | 3.96 | 2.35 | 52.4
H-Y[Aib]QGTFTSDFSK[αMeL]LDKK([AEEA-AEEA-γGlu-C20 diacid])AQ[Aib]AFIEYLLEGGPSSGAPPPGEG-NH2 [Example 17] | 91.7 | 543 | 2040 | 0.317 | 2.96 | 8.33 | 66.2 | 72.2 |  |  |  |  |  |  | 
H-Y[Aib]QGTFTSD[4Pal]S[Orn][αMeL]LDKK([AEEA-γGlu-C18 diacid])AQ[αMe4Pal]AFIEYLIE[Aib]GESSGAPPPSGE-NH2 [Example 222] | 52.5 | 753 | 440 | 0.228 | 3.64 | 2.33 | 34.6 | 52.4 |  |  |  |  |  |  | 
Y[Aib]QGTFTSD[4Pal]SK[αMeL]LDKK([AEEA-γGlu-C20 diacid])AQ[Aib]AFIEYLLAGGPSSGEPPPSGE-NH2 [Example 28] | 63.8 | 686 | 1550 | 0.255 | 3.68 | 12.6 | 81.8 | 76.2 |  |  |  |  |  |  | 
Y[Aib]QGTFTSDFS[Orn][αMeL]LDKK([AEEA-AEEA-γGlu-C18 diacid])AQ[Aib]AFIEYLLE[dA]GPSSGEPPPSEG-NH2 [Example 116] | 40.4 | 401 | 882 | 0.382 | 7.83 | 3.96 | 80.7 | 46.2 |  |  |  |  |  |  | 
